Measurements as given in ChEMBL document CHEMBL1201862, “PubChem BioAssay data set” (2004).
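Where inhibition never reached the appropriate level, the endpoint shown equals the highest concentration tested. Otherwise, values were interpolated linearly from a five-concentration, 48-hour dose response in 96-well plates. GI50: concentration for 50% inhibition of growth.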 Calls of active or inactive are those of the source. Cut-off read from the data, not from the text of the source: active = GI50 up to about 1.1 µM and inactive = higher.

What was measured:
Assay in all cases: NCI-60 cell line screen, 48 h
NCI-H23 = tested on: NCI-H23
LXFL 529 = tested on: LXFL 529
KM-20L2 = tested on: KM-20L2
RXF 393 = tested on: RXF 393
SNB-19 = tested on: SNB-19
U-251 = tested on: U-251
SNB-75 = tested on: SNB-75
SR = tested on: SR
SK-MEL-2 = tested on: SK-MEL-2
OVCAR-8 = tested on: OVCAR-8
HL-60 = tested on: HL-60
Malme-3M = tested on: Malme-3M
SW-620 = tested on: SW-620
K562 = tested on: K562
OVCAR-5 = tested on: OVCAR-5
A498 = tested on: A498
HOP-62 = tested on: HOP-62
LOX IMVI = tested on: LOX IMVI
CCRF-CEM = tested on: CCRF-CEM
DLD-1 = tested on: DLD-1
NCI-H522 = tested on: NCI-H522
786-0 = tested on: 786-0
ACHN = tested on: ACHN
UACC-257 = tested on: UACC-257
DMS-114 = tested on: DMS-114
OVCAR-4 = tested on: OVCAR-4
SNB-78 = tested on: SNB-78
UO-31 = tested on: UO-31
HOP-18 = tested on: HOP-18
CAKI-1 = tested on: CAKI-1
XF498 = tested on: XF498
SK-MEL-28 = tested on: SK-MEL-28
IGROV-1 = tested on: IGROV-1
SF-539 = tested on: SF-539
KM12 = tested on: KM12
HCT-116 = tested on: HCT-116
HOP-92 = tested on: HOP-92
TK-10 = tested on: TK-10
COLO 205 = tested on: COLO 205
HCT-15 = tested on: HCT-15
SK-MEL-5 = tested on: SK-MEL-5
HCC 2998 = tested on: HCC 2998
RPMI-8226 = tested on: RPMI-8226
HT-29 = tested on: HT-29
NCI-H226 = tested on: NCI-H226
M14 = tested on: M14
SF-268 = tested on: SF-268
SF-295 = tested on: SF-295
M19-MEL = tested on: M19-MEL
SK-OV-3 = tested on: SK-OV-3
MOLT-4 = tested on: MOLT-4
A549 = tested on: A549
SN12C = tested on: SN12C
DMS-273 = tested on: DMS-273
OVCAR-3 = tested on: OVCAR-3
UACC-62 = tested on: UACC-62
EKVX = tested on: EKVX
NCI-H460 = tested on: NCI-H460

## C=C(CCCCC)CN1CCCC1[C@@](C)(O)CC(=O)OCC (stereo partly specified)
NCI-H23
  GI50: > 100 µM (inactive)
LXFL 529
  GI50: > 100 µM (inactive)
KM-20L2
  GI50: > 100 µM (inactive)
RXF 393
  GI50: > 100 µM (inactive)
SNB-19
  GI50: > 100 µM (inactive)
U-251
  GI50: > 100 µM (inactive)
SNB-75
  GI50: > 100 µM (inactive)
SR
  GI50: 71.8 µM (inactive)
SK-MEL-2
  GI50: > 100 µM (inactive)
OVCAR-8
  GI50: > 100 µM (inactive)
HL-60
  GI50: 28.6 µM (inactive)
Malme-3M
  GI50: > 100 µM (inactive)
SW-620
  GI50: > 100 µM (inactive)
K562
  GI50: > 100 µM (inactive)
OVCAR-5
  GI50: > 100 µM (inactive)
A498
  GI50: > 100 µM (inactive)
HOP-62
  GI50: > 100 µM (inactive)
LOX IMVI
  GI50: > 100 µM (inactive)
CCRF-CEM
  GI50: > 100 µM (inactive)
DLD-1
  GI50: > 100 µM (inactive)
NCI-H522
  GI50: > 100 µM (inactive)
786-0
  GI50: > 100 µM (inactive)
ACHN
  GI50: > 100 µM (inactive)
UACC-257
  GI50: > 100 µM (inactive)
DMS-114
  GI50: > 100 µM (inactive)
OVCAR-4
  GI50: > 100 µM (inactive)
SNB-78
  GI50: > 100 µM (inactive)
UO-31
  GI50: > 100 µM (inactive)
HOP-18
  GI50: > 100 µM (inactive)
CAKI-1
  GI50: > 100 µM (inactive)
XF498
  GI50: > 76.6 µM (inactive)
SK-MEL-28
  GI50: > 100 µM (inactive)
IGROV-1
  GI50: > 100 µM (inactive)
SF-539
  GI50: > 100 µM (inactive)
KM12
  GI50: > 100 µM (inactive)
HCT-116
  GI50: > 100 µM (inactive)
HOP-92
  GI50: > 100 µM (inactive)
TK-10
  GI50: > 100 µM (inactive)
COLO 205
  GI50: > 100 µM (inactive)
HCT-15
  GI50: > 100 µM
SK-MEL-5
  GI50: > 100 µM (inactive)
HCC 2998
  GI50: > 100 µM (inactive)
RPMI-8226
  GI50: > 100 µM (inactive)
HT-29
  GI50: > 100 µM (inactive)
NCI-H226
  GI50: > 100 µM (inactive)
M14
  GI50: > 100 µM (inactive)
SF-268
  GI50: > 100 µM (inactive)
SF-295
  GI50: > 100 µM (inactive)
M19-MEL
  GI50: > 100 µM (inactive)
SK-OV-3
  GI50: > 100 µM (inactive)
MOLT-4
  GI50: 90.2 µM (inactive)
A549
  GI50: > 100 µM (inactive)
SN12C
  GI50: > 100 µM (inactive)
DMS-273
  GI50: > 100 µM (inactive)
OVCAR-3
  GI50: > 100 µM (inactive)
UACC-62
  GI50: > 100 µM (inactive)
EKVX
  GI50: > 100 µM (inactive)
NCI-H460
  GI50: > 100 µM (inactive)

## COc1cc(OC)c2c(c1)C(=O)C(CC(C)O)=CC2=O (stereo unspecified)
NCI-H23
  GI50: 19.7 µM (inactive)
LXFL 529
  GI50: 13.2 µM (inactive)
KM-20L2
  GI50: 17.2 µM (inactive)
RXF 393
  GI50: 12.7 µM (inactive)
SNB-19
  GI50: 17.7 µM (inactive)
U-251
  GI50: 17.9 µM (inactive)
SNB-75
  GI50: 25.8 µM (inactive)
SR
  GI50: 2 µM (inactive)
SK-MEL-2
  GI50: 19.7 µM (inactive)
OVCAR-8
  GI50: 15.7 µM (inactive)
HL-60
  GI50: 5.47 µM (inactive)
Malme-3M
  GI50: 22.7 µM (inactive)
SW-620
  GI50: 17.8 µM (inactive)
K562
  GI50: 14.9 µM (inactive)
OVCAR-5
  GI50: 18.4 µM (inactive)
A498
  GI50: 17.8 µM (inactive)
HOP-62
  GI50: 19.4 µM (inactive)
LOX IMVI
  GI50: 5.97 µM (inactive)
CCRF-CEM
  GI50: 4.22 µM (inactive)
DLD-1
  GI50: 13.7 µM (inactive)
NCI-H522
  GI50: 14.4 µM (inactive)
786-0
  GI50: 16.2 µM (inactive)
ACHN
  GI50: 16.6 µM (inactive)
UACC-257
  GI50: 16.6 µM (inactive)
DMS-114
  GI50: 3.08 µM (inactive)
OVCAR-4
  GI50: 17.8 µM (inactive)
SNB-78
  GI50: 15.3 µM (inactive)
UO-31
  GI50: 16.3 µM (inactive)
HOP-18
  GI50: 16.7 µM (inactive)
CAKI-1
  GI50: 20.1 µM (inactive)
XF498
  GI50: 14 µM (inactive)
SK-MEL-28
  GI50: 17.7 µM (inactive)
IGROV-1
  GI50: 18.2 µM (inactive)
SF-539
  GI50: 18.4 µM (inactive)
KM12
  GI50: 19.5 µM (inactive)
HCT-116
  GI50: 12.5 µM (inactive)
HOP-92
  GI50: 11.1 µM (inactive)
TK-10
  GI50: 19.9 µM (inactive)
COLO 205
  GI50: 18.6 µM (inactive)
HCT-15
  GI50: 14.6 µM
SK-MEL-5
  GI50: 14.7 µM (inactive)
HCC 2998
  GI50: 28.6 µM (inactive)
RPMI-8226
  GI50: 11.5 µM (inactive)
HT-29
  GI50: 19.1 µM (inactive)
NCI-H226
  GI50: 20.8 µM (inactive)
M14
  GI50: 18.5 µM (inactive)
SF-268
  GI50: 18.2 µM (inactive)
SF-295
  GI50: 14.2 µM (inactive)
M19-MEL
  GI50: 3.42 µM (inactive)
SK-OV-3
  GI50: 18 µM (inactive)
MOLT-4
  GI50: 3.89 µM (inactive)
A549
  GI50: 22.3 µM (inactive)
SN12C
  GI50: 18.7 µM (inactive)
DMS-273
  GI50: 16.6 µM (inactive)
OVCAR-3
  GI50: 5.82 µM (inactive)
UACC-62
  GI50: 11.8 µM (inactive)
EKVX
  GI50: 12 µM (inactive)
NCI-H460
  GI50: 23.6 µM (inactive)
